Where two headings read alike, the source gives them in different places.
Tested on: Escherichia coli (ATCC25922) or Staphylococcus aureus (ATCC25923)
Assay: Antibacterial MIC, microdilution method in Mueller-Hinton medium
Assay type: cell-based
Settings: Escherichia coli, 18 h, read-out: Potency (MIC)
Method: The antibacterial activity of the Formula I compounds was evaluated against standard bacterial strains by determining the minimal inhibitory concentration (MIC) to block growth. Each drug was assayed by the microdilution method in Mueller-Hinton medium, as recommended by the National Committee for Clinical Laboratory Standards. Approved Standard M7-A5: Methods for Dilution Antimicrobial Susceptibility Tests for Bacteria That Grow Aerobically 5th Ed. (National Committee for Clinical Laboratory Standards, Wayne, Pa., 2000). The tested bacterial strains included Escherichia coli (American Type Collection ATCC25922), Staphylococcus aureus (ATCC25923), and Pseudomonas aeruginosa (ATCC27853). Two-fold serial dilutions of each compound ranging from 64 to 0.5 μg/ml were tested in duplicate. The MIC was determined as the lowest concentration of each compound that prevented bacterial growth after 18 hours of incubation at 35° C. […] The mass of each compound in the Table was confirmed by LC-MS.

[1] = MIC in E. coli or S. aureus, two-fold serial dilutions 64 to 0.5 μg/ml in duplicate, 18 hours of incubation at 35° C.

SMILES | MIC [1] [µg/mL] | MIC [µg/mL]
N[C@@H]1C[C@H](N)CN(c2nc(Nc3ccc(O)c4ncccc34)nc(N3C[C@H](N)C[C@H](N)C3)n2)C1 [N-(8-hydroxy-quinolin-5-yl)-4,6-Bis-((3R,5S)-3,5-diamino-piperidin-1-yl)-[1,3,5]triazine-2-amine] | < 64 | < 16
COc1ccc(Nc2ccc(NC(=O)CC(=O)c3ccc(Nc4nc(N5CCCCC5)nc(N5CCCCC5)n4)cc3)cc2)cc1 [N-{4-[2-(4-methoxy-phenylcarbamoyl)-acetyl]-phenyl}-44,6-Bis-((3R,5S)-3,5-diamino-piperidin-1-yl)-[1,3,5]triazine-2-amine] | < 16 | –
Cc1ccc(C(=O)Nc2cccc(Nc3nc(N4C[C@H](N)C[C@H](N)C4)nc(N4C[C@H](N)C[C@H](N)C4)n3)c2)c(O)c1 [N-[3-(2-hydroxy-4-methyl-benzoylamino)-phenyl]-4,6-Bis-((3R,5S)-3,5-diamino-piperidin-1-yl)-[1,3,5]triazine-2-amine] | – | < 64
NC[C@@H]1C[C@H](CN)CN(c2nc(Nc3ccc(C(=O)Oc4ccccc4)c(O)c3)nc(N3C[C@H](N)C[C@H](N)C3)n2)C1 [4-[4-((3R,5S)-3,5-Bis-(aminomethyl)-piperidin-1-yl)-6-((3R,5S)-3,5-diamino-piperidin-1-yl)-[1,3,5]triazin-2-ylamino]-2-hydroxy-benzoic acid phenyl ester] | – | < 64
Cl.N[C@@H]1C[C@H](N)CN(c2nc(Nc3ccon3)nc(N3C[C@H](N)C[C@H](N)C3)n2)C1 [N-isoxazol-3-yl-4,6-Bis-((3R,5S)-3,5-diamino-piperidin-1-yl)-[1,3,5]triazine-2-amine] | > 64 | –
CC(C)c1cc(C(=O)Nc2ccc(Nc3nc(N4C[C@H](N)C[C@H](N)C4)nc(N4C[C@H](N)C[C@H](N)C4)n3)cc2O)c(O)c(C(C)C)c1 [N-[3-hydroxy-4-(2-hydroxy-3,5-diisopropyl-benzoylamino)-phenyl]-4,6-Bis-((3R,5S)-3,5-diamino-piperidin-1-yl)-[1,3,5]triazine-2-amine] | – | < 16
NCCN(CCN)c1nc(Nc2ccc(NC(=O)c3ccc(Cl)cc3)c(O)c2)nc(N2C[C@H](N)C[C@H](N)C2)n1 [N-{4-[4-[Bis-(2-amino-ethyl)-amino]-6-((3R,5S)-3,5-diamino-piperidin-1-yl)-[1,3,5]triazin-2-ylamino]-2-hydroxy-phenyl}-4-chloro-benzamide] | – | < 64
N[C@@H]1C[C@H](N)CN(c2nc(Nc3ccc(NS(=O)(=O)CCCCl)c(O)c3)nc(N3C[C@H](N)C[C@H](N)C3)n2)C1 [N-[4-(3-chloro-propane-1-sulfonylamino)-3-hydroxy-phenyl]-4,6-Bis-((3R,5S)-3,5-diamino-piperidin-1-yl)-[1,3,5]triazine-2-amine] | – | > 64
Cl.O=C(Nc1ccc(Nc2cc(N3CCCCC3)cc(N3CCCCC3)c2)cc1)c1ccc2ccccc2c1O [1-Hydroxy-naphthalene-2-cxarboxylicacid {4-[3-((3R,5S)-3,5-diamino-piperidin-1-yl)-5-((3S,5R)-3,5-diamino-piperidin-1-yl)-phenylamino]-phenyl}-amide] | < 16 | –
N[C@@H]1C[C@H](N)CN(c2nc(Nc3ccc(Nc4ccccc4)cc3)nc(N3C[C@H](N)C[C@H](N)C3)n2)C1 [N-(4-phenylamino-phenyl)-4,6-Bis((3R,5S)-3,5-diamino-piperidin-1-yl)-[1,3,5]triazine-2-amine] | < 64 | –
COc1nc(Nc2ccc(C(C)=O)cc2)nc(N2C[C@H](N)C[C@H](N)C2)n1 [1-{4-[4-((3R,5S)-3,5-Diamino-piperidin-1-yl)-6-methoxy-[1,3,5]triazin-2-ylamino]-phenyl}-ethanone] | – | > 64
COc1cccc(C(=O)Nc2ccc(Nc3nc(N4C[C@H](N)C[C@H](N)C4)nc(N4C[C@H](N)C[C@H](N)C4)n3)cc2O)c1O [N-[3-hydroxy-4-(2-hydroxy-3-methoxy-benzoylamino)-phenyl]-4,6-Bis-((3R,5S)-3,5-diamino-piperidin-1-yl)-[1,3,5]triazine-2-amine] | – | < 16
NC[C@@H]1C[C@H](CN)CN(c2nc(Nc3ccc(NC(=O)c4ccc5ccccc5c4O)cc3)nc(N3C[C@H](N)C[C@H](N)C3)n2)C1 [1-Hydroxy-naphthalene-2-carboxylic acid {4-[4-((3R,5S)-3,5-bis-(aminomethyl)-piperidin-1-yl)-6-((3R,5S)-3,5-diamino-piperidin-1-yl)-[1,3,5]triazine-2-ylamino]-phenyl}-amide] | – | < 16
Cc1ccnc(NS(=O)(=O)c2ccc(Nc3nc(N4C[C@H](N)C[C@H](N)C4)nc(N4C[C@H](N)C[C@H](N)C4)n3)cc2)n1 [N-[4-(4-methyl-pyrimidin-2-ylsulfamoyl)-phenyl]-4,6-Bis-((3R,5S)-3,5-diamino-piperidin-1-yl)-[1,3,5]triazine-2-amine] | – | > 64
Nc1cncc(Nc2nc(N3C[C@H](N)C[C@H](N)C3)nc(N3C[C@H](N)C[C@H](N)C3)n2)c1 [N-(5-amino-pyridin-3-yl)-4,6-Bis-((3R,5S)-3,5-diamino-piperidin-1-yl)-[1,3,5]triazine-2-amine] | – | > 64
Cl.N[C@@H]1C[C@H](N)CN(c2nc(N3C[C@H](N)C[C@H](N)C3)nc(-n3cnc4ccccc43)n2)C1 [1-(4,6-Bis-((3R,5S)-3,5-diamino-piperidin-1-yl)-[1,3,5]triazin-2-yl)-1H-benzoimidazole] | > 64 | –
COc1cc(NC(=O)c2ccc(Nc3nc(N4CCCCC4)nc(N4CCCCC4)n3)cc2O)cc(OC)c1OC.Cl [N-[3-hydroxy-4-(3,4,5-trimethoxy-phenylcarbamoyl)-phenyl]-4,,6-Bis-((3R,5S)-33,5-diamino-piperidin-1-yl)-[1,3,5]triazine-2-amine] | < 64 | –
N[C@@H]1C[C@H](N)CN(c2nc(Nc3ccc4c(c3)-c3ccccc3C4=O)nc(N3C[C@H](N)C[C@H](N)C3)n2)C1 [N-(9-oxo-9H-fluoren-3-yl)-4,6-Bis-((3R,5S)-3,5-diamino-piperidin-1-yl)-[1,3,5]triazine-2-amine] | – | < 16
N[C@@H]1C[C@H](N)CN(c2nc(Nc3cccc(NC(=O)c4cccc(O)c4O)c3)nc(N3C[C@H](N)C[C@H](N)C3)n2)C1 [N-[3-(2,3-dihydroxy-benzoylamino)-phenyl]-4,6-Bis-((3R,5S)-3,5-diamino-piperidin-1-yl)-[1,3,5]triazine-2-amine] | – | < 16
N[C@@H]1C[C@H](N)CN(c2nc(Nc3ccc(NC(=O)c4cc(Cl)cnc4O)cc3)nc(N3C[C@H](N)C[C@H](N)C3)n2)C1 [N-{4-[(5-chloro-2-hydroxy-pyridine-3-carbonyl)-amino]-phenyl}-4,6-Bis-((3R,5S)-3,5-diamino-piperidin-1-yl)-[1,3,5]triazine-2-amine] | – | < 64
N[C@@H]1C[C@H](N)CN(c2nc(Nc3ccc(NC(=O)c4ccc(F)cc4O)c(O)c3)nc(N3C[C@H](N)C[C@H](N)C3)n2)C1 [N-[4-(4-fluoro-2-hydroxy-benzoylamino)-3-hydroxy-phenyl]-4,6-Bis-((3R,5S)-3,5-diamino-piperidin-1-yl)-[1,3,5]triazine-2-amine] | – | < 16
N[C@@H]1C[C@H](N)CN(c2nc(Nc3ccc(NC(=O)c4ccc(Cl)cc4)c(O)c3)nc(NC3CCCNC3)n2)C1 (stereo partly drawn) [4-Chloro-N-{4-[4-((3S,5R)-3,5-diamino-piperidin-1-yl)-6-(piperidin-3-ylamino)-[1,3,5]triazin-2-ylamino]-2-hydroxy-phenyl}-benzamide] | – | < 16
